Assay results as given in patent US9334246B2, “Substituted triazines for malaria treatment and chemoprophylaxis” (The United States of America, as represented by the …, priority 2013, dated 2016).

What was measured:
[1] = molecular target: hERG potassium ion channel (Homo sapiens, UniProt Q12809); test: hERG patch clamp assay (% inhibition at 10 μM)
[2] = test system: P. falciparum D6; test: Malaria SYBR Green Fluorescence Assay, D6 strain; assay type: cell-based, Plasmodium falciparum; conditions: for D6: SYBR Green Assay
[3] = test system: P. falciparum W2; test: Malaria SYBR Green Fluorescence Assay, W2 strain; assay type: cell-based, Plasmodium falciparum; conditions: for W2: SYBR Green Assay
[4] = test system: P. falciparum C235; test: Malaria SYBR Green Fluorescence Assay, C235 strain; assay type: cell-based, Plasmodium falciparum; conditions: for C235: SYBR Green Assay
[5] = % inhibition at 10 μM, patch clamp

hERG potassium ion channel, sequence (Q12809 whole entry): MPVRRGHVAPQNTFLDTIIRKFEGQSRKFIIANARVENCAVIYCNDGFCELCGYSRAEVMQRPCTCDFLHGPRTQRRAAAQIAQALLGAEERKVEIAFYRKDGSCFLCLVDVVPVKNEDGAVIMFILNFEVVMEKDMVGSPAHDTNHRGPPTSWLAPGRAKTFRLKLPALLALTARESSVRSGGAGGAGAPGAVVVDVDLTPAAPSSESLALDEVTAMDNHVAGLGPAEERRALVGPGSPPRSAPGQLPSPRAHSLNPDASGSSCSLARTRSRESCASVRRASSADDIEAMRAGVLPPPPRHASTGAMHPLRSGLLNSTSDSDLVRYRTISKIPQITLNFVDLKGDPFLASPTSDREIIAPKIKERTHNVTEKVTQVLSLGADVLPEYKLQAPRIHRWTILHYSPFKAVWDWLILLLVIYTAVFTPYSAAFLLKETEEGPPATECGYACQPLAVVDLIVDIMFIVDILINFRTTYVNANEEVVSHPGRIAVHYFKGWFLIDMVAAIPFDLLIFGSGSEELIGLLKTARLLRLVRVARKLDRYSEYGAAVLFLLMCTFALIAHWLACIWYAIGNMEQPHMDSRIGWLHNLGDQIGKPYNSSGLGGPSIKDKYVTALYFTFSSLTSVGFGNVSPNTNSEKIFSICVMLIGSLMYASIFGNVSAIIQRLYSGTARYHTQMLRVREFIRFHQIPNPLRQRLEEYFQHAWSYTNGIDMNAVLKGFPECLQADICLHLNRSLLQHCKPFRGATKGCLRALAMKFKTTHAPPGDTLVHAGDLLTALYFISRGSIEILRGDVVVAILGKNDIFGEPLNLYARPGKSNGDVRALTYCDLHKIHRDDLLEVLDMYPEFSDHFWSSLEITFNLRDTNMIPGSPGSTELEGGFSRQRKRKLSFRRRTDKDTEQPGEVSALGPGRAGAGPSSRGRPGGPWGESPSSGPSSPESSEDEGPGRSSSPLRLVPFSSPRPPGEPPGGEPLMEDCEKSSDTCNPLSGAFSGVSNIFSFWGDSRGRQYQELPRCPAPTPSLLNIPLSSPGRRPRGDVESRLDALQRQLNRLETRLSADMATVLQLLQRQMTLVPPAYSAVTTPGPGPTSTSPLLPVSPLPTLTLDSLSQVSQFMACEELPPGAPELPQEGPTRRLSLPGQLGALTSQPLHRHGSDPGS

| Compound | hERG ([1]; hERG activity as % inhibition) [%] | D6 [2] [ng/mL] | W2 [3] [ng/mL] | C235 [4] [ng/mL] | hERG [1, 5] [%] | hERG (% inhibition) ([1]; 10 μM) [%] | D6 (SYBR Green Assay IC50) [2] [ng/mL] | W2 (SYBR Green Assay IC50) [3] [ng/mL] | C235 (SYBR Green Assay IC50) [4] [ng/mL] |
| --- | --- | --- | --- | --- | --- | --- | --- | --- | --- |
| 3-(4-((3-(dimethylamino)propyl)amino)-6-(trichloromethyl)-1,3,5-triazin-2-yl)benzoic acid [Example 11] | 15 | 588 | 475 | 592 |  |  |  |  |  |
| 4-(4-(((1-ethylpiperidin-4-yl)methyl)amino)-6-(trichloromethyl)-1,3,5-triazin-2-yl)benzoic acid [Example 12] | 39 | 5 | 11 | 4 |  |  |  |  |  |
| 4-((4-((pyridin-2-ylmethyl)amino)-6-(trichloromethyl)-1,3,5-triazin-2-yl)amino)phenol [Example 14] |  | 37 | 24 | 36 | 11 |  |  |  |  |
| Clc1ccc(-c2nc(N3CCNCC3)nc(C(Cl)(Cl)Cl)n2)cc1Cl [Cmpd 25] |  |  |  |  | 10 |  |  |  |  |
| CN1CCN(c2nc(-c3ccc(Cl)cc3)nc(C(Cl)(Cl)Cl)n2)CC1 [Cmpd 29] |  | 307 | 173 | 351 | 5 |  |  |  |  |
| Clc1ccc(-c2nc(N3CCOCC3)nc(C(Cl)(Cl)Cl)n2)cc1 [Cmpd 31] |  |  |  |  | 12 |  |  |  |  |
| CC(C)(C)c1ccc(-c2nc(NCCCN3CCCC3)nc(C(Cl)(Cl)Cl)n2)cc1 [Cmpd 34] |  | 152 | 141 | 152 | 80.9 |  |  |  |  |
| ClC(Cl)(Cl)c1nc(NCCN2CCCC2)nc(-c2ccc(OCc3ccccc3)cc2)n1 [Cmpd 35] |  | 194 | 125 | 186 | 56 |  |  |  |  |
| CS(=O)(=O)c1ccc(-c2nc(NCCN3CCCC3)nc(C(Cl)(Cl)Cl)n2)cc1 [Cmpd 39] |  | 85 | 45 | 92 | 90 |  |  |  |  |
| CSc1ccc(-c2nc(NCCC3CCCN3C)nc(C(Cl)(Cl)Cl)n2)cc1 (centres unmarked) [Cmpd 45] |  | 43 | 91 | 74 | 38 |  |  |  |  |
| CSc1ccc(-c2nc(NCCN3CCCC3)nc(C(Cl)(Cl)Cl)n2)cc1 [Cmpd 47] |  |  |  |  | 95 |  |  |  |  |
| CCN(CC)CCNc1nc(Cc2ccc(OC)cc2)nc(C(Cl)(Cl)Cl)n1 [Cmpd 59] |  | 290 | 153 | 288 | 100 |  |  |  |  |
| CN1CCCC1CCNc1nc(Nc2ccccc2N2CCOCC2)nc(C(Cl)(Cl)Cl)n1 (centres unmarked) [Cmpd 64] |  | 140 | 75 | 121 | 100 |  |  |  |  |
| COc1ccccc1Nc1nc(N2CCN(C)CC2)nc(C(Cl)(Cl)Cl)n1 [Cmpd 65] |  | 32 | 32 | 31 | 83 |  |  |  |  |
| CCN(CC)CCNc1nc(Cc2ccccc2OC)nc(C(Cl)(Cl)Cl)n1 [Cmpd 70] |  | 6 | 6 | 6 | 100 |  |  |  |  |
| CN1CCC(Nc2nc(-c3ccc(S(C)(=O)=O)cc3)nc(C(Cl)(Cl)Cl)n2)CC1 [Cmpd 77] |  | 92 | 53 | 131 | 72 |  |  |  |  |
| CCN1CCCC(Nc2nc(-c3ccc(C)cc3)nc(C(Cl)(Cl)Cl)n2)C1 (centres unmarked) [Cmpd 80] |  | 135 | 90 | 129 | 97 |  |  |  |  |
| COc1ccc(Cc2nc(NCCN3CCCC3C)nc(C(Cl)(Cl)Cl)n2)cc1 (centres unmarked) [Cmpd 89] |  | 805 | 718 | 991 | 50 |  |  |  |  |
| CN1CCCC1CCNc1nc(-c2ccc(Cl)cc2)nc(C(Cl)(Cl)Cl)n1 (centres unmarked) [Cmpd 91] |  | 31 | 19 | 32 | 79 |  |  |  |  |

| Compound | hERG ([1]; hERG activity as % inhibition) [%] | D6 [2] [ng/mL] | W2 [3] [ng/mL] | C235 [4] [ng/mL] | hERG [1, 5] [%] | hERG (% inhibition) ([1]; 10 μM) [%] | D6 (SYBR Green Assay IC50) [2] [ng/mL] | W2 (SYBR Green Assay IC50) [3] [ng/mL] | C235 (SYBR Green Assay IC50) [4] [ng/mL] |
| --- | --- | --- | --- | --- | --- | --- | --- | --- | --- |
| Cc1ccccc1-c1nc(NCCN2CCCC2)nc(C(Cl)(Cl)Cl)n1 [Cmpd 121] |  | 70 | 42 | 84 | 103 |  |  |  |  |
| COc1ccc(-c2nc(NCc3ccncc3)nc(C(Cl)(Cl)Cl)n2)cc1 [Cmpd 130] |  | 12 | 5 | 24 | 20 |  |  |  |  |
| Clc1ccc(-c2nc(NCCc3ccccn3)nc(C(Cl)(Cl)Cl)n2)cc1 [Cmpd 140] |  | 106 | 32 | 136 | 11 |  |  |  |  |
| CC(C)(C)c1ccc(-c2nc(N3CCNCC3)nc(C(Cl)(Cl)Cl)n2)cc1 [Cmpd 161] |  | 88 | 32 | 98 | 15 |  |  |  |  |
| ClC(Cl)(Cl)c1ccc(-c2nc(NCCc3ccccn3)nc(C(Cl)(Cl)Cl)n2)cc1 [Cmpd 163] |  | 50 | 20 | 61 | 5 |  |  |  |  |
| COc1cccc(-c2nc(NCCN3CCCC3)nc(C(Cl)(Cl)Cl)n2)c1 [Cmpd 192] |  | 18 | 13 | 12 | 100 |  |  |  |  |
| ClC(Cl)(Cl)c1nc(NCCN2CCCC2)nc(-c2ccc(-c3ccccc3)cc2)n1 [Cmpd 196] |  | 31 | 25 | 30 | 53 |  |  |  |  |
| Clc1cc(Cl)cc(-c2nc(NCCN3CCCC3)nc(C(Cl)(Cl)Cl)n2)c1 [Cmpd 202] |  | 7 | 10 | 7 | 51 |  |  |  |  |
| CN1CCCN(c2nc(-c3cc(Cl)cc(Cl)c3)nc(C(Cl)(Cl)Cl)n2)CC1 [Cmpd 205] |  | 23 | 7 | 26 | 20 |  |  |  |  |
| CN1CCC(Nc2nc(-c3cccc(C(F)(F)F)c3)nc(C(Cl)(Cl)Cl)n2)CC1 [Cmpd 212] |  | 45 | 16 | 25 | 80 |  |  |  |  |
| COc1ccccc1-c1nc(NCC(C)(C)N)nc(C(Cl)(Cl)Cl)n1 [Cmpd 217] |  | 43 | 20 | 20 | 62 |  |  |  |  |
| CCN(CC)CCNc1nc(-c2ccc3ccccc3c2)nc(C(Cl)(Cl)Cl)n1 [Cmpd 220] |  | 40 | 8 | 12 | 66 |  |  |  |  |
| CN1CCC(Nc2nc(-c3ccccc3)nc(C(Cl)(Cl)Cl)n2)CC1 [Cmpd 237] |  | 47 | 32 | 31 | 107 |  |  |  |  |
| CN1CCN(c2nc(-c3ccc(-c4ccccc4)cc3)nc(C(Cl)(Cl)Cl)n2)CC1 [Cmpd 298] |  | 62 | 33 | 87 | 10 |  |  |  |  |
| CCN1CCC(CNc2nc(-c3ccc(-c4ccccc4)cc3)nc(C(Cl)(Cl)Cl)n2)CC1 [Cmpd 306] |  | 54 | 30 | 87 | 38 |  |  |  |  |
| NC1(CNc2nc(-c3cccc(C(F)(F)F)c3)nc(C(Cl)(Cl)Cl)n2)CCOCC1 [Cmpd 315] |  | 3 | 1 | 8 | 36 |  |  |  |  |
| CC1(C)CC(Nc2nc(-c3ccc(C(C)(C)C)cc3)nc(C(Cl)(Cl)Cl)n2)CC(C)(C)N1 [Cmpd 321] |  | 6 | 3 | 11 | 11 |  |  |  |  |
| COc1ncccc1Nc1nc(NC2CC(C)(C)NC(C)(C)C2)nc(C(Cl)(Cl)Cl)n1 [Cmpd 348] |  | 11 | 9 | 18 | 96 |  |  |  |  |
| CCC(N)(CC)CNc1nc(-c2ccc(Cl)cc2)nc(C(Cl)(Cl)Cl)n1 [Cmpd 356] |  |  |  |  |  | 44 | 3 | 3 | 7 |
